The text below walks through data of patent US20220227769A1, “CRYSTALLINE FORM OF TELMAPITANT OR (5R,8S)-8-[[(1R)-1-[3,5-BIS(TRIFLUOROMETHYL)PHENYL]ETHOXY]METHYL]-8-PHENYL-1,3,7-TRIAZASPIRO[4.5]DECANE-2,4-DIONE” (Intervet Inc., priority 2019, published 2022).

Series [1] in a line: Competitive slurry experiments of polymorphic forms. The format is physicochemical. The conditions noted are these: competitive slurry of Form 1 with Form 2 and Form 3 in acetonitrile at room temperature (20-25° C.) and 75° C. An excerpt: Three anhydrous polymorphic forms of telmapitant or (5R,8S)-8-[[(1R)-1-[3,5-bis(trifluoromethyl)phenyl]ethoxy]methyl]-8-phenyl-1,3,7-triazaspiro[4.5]decane-2,4-dione (MK-7035) have been identified during polymorph screening.

Series [2] has as its system emesis induced by apomorphine IV and syrup of ipecac orally. To be noted: dogs; centrally acting emetogens (apomorphine IV) and peripherally acting emetogens (syrup of ipecac orally); cited from earlier work.

Turning to `C[C@@H](OC[C@@]1(c2ccccc2)CC[C@]2(CN1)NC(=O)NC2=O)c1cc(C(F)(F)F)cc(C(F)(F)F)c1` [Form 1, (5R,8S)-8-[[(1R)-1-[3,5-bis(trifluoromethyl)phenyl]ethoxy]methyl]-8-phenyl-1,3,7-triazaspiro[4.5]decane-2,4-dione], the “relative thermodynamic stability of polymorphic forms” value in series [1] is “thermodynamically more stable than Form 2 and Form 3”.
As for `COc1ccc(C(C)(C)C)cc1CN[C@H]1C2CCN(CC2)[C@H]1C(c1ccccc1)c1ccccc1` [maropitant], in series [2], the efficacy against emetogens result was “effective”.
